Test results published in patent US20050250784A1 (Miikana Therapeutics Corporation, priority 2004, published 2005).

Test system: HDAC (HeLa cell nuclear extract, a mosaic of HDAC enzymes)
Assay: In vitro fluorescent histone deacetylase assay (Biomol HDAC fluorescent activity kit)
Assay type: biochemical
Conditions: compound concentration 100 μM; HeLa cell nuclear extract as HDAC source; substrate 50 μM, 10 min, room temperature
Protocol: Histone deacetylase (HDAC) activity assays were performed using the HDAC fluorescent activity assay/drug discovery kit (Biomol Research Laboratories, Plymouth Meeting, Pa.) essentially according to the manufacturer's instructions. The included HeLa cell nuclear extract, which contains a mosaic of HDAC enzymes and other nuclear factors, was used as the source of HDAC activity. The final substrate concentration in the assay mixture was 50 μM. The reaction was allowed to proceed for 10 min at room temperature before stopping the reaction. Test compounds were prepared as 20 mM stock solutions in DMSO (Molecular Biology grade, Sigma-Aldrich Co., St. Louis, Mo.) and stored at −70° C. Serial dilutions of test compounds were prepared in assay buffer immediately prior to testing. DMSO was determined in a separate trial to have no significant effect on the activity of this assay at concentrations up to 5%; the final DMSO concentration in the wells was no more than 2% and therefore DMSO effects were safely neglected. Assays were performed in white polystyrene 96-well half-area assay plates (Corning, Corning, N.Y.) and measured on a Wallace 1420 fluorescent plate reader (Wallac Oy, Turku, Finland) with an excitation wavelength of 355 nm, an emission wavelength of 460 nm, and a 1 sec signal averaging time.

With `Cc1cccc(Cl)c1S(=O)(=O)N1CCN(c2ncc(C(=O)NO)s2)CC1` [Example 238, 2-[4-(2-methyl-6-chlorophenylsulfonyl)-piperazin-1-yl]-thiazole-5-carboxylic acid hydroxyamide] the “% inhibition HDAC @ 100 μM” value was 100%.

Test system: MCF7 cells
Assay: Whole cell cytotoxicity assay: Sulforhodamine B
Assay type: cell-based, Human
Conditions: Homo sapiens; compound concentration 100 μM; MCF7 cell growth, 48 hours with drug, SRB staining
Protocol: The following procedure can be found on the Developmental Therapeutics Program NCI/NIH web site at http://dtp.nci.nih.gov/brancehes/btb/ivclsp.html.
1. Human tumor cell lines of HT29, A549 and MCF7 are grown in DMEM containing 10% fetal bovine serum and 2 mM L-glutamine. Cells are plated in a 96 well plate at a density of 5000 cells per well in 100 uL of growth medium and incubated at 37° C., 5% CO2, for 24 hours prior to the addition of experimental compounds.
2. Experimental drugs are solubilized in DMSO for a final concentration of 20 mM immediately prior to use. Drugs are further diluted in growth media for a total of nine drug concentrations and a growth control. At the 24 hour time point, one plate of cells is fixed in situ with TCA as a measurement of the cell population at time zero, or the time of drug addition.
3. The plates are further incubated with drug for an additional 48 hours.
4. The cells are fixed in situ by gently aspirating off the culture media and then adding 50 uL of ice cold 10% TCA per well and incubated at 4° C. for 60 minutes. The plates are washed with tap water five times and allowed to air dry for 5 minute.
5. 50 ul of a 0.4% (w/v) Sulforhodamine B solution in 1% (v/v) acetic acid is added per well and incubated for 30 minutes at room temperature.
6. Following staining, plates are washed five times with 1% acetic acid to remove any unbound dye and then allowed to air dry for 5 minutes.
7. Stain is solubilized with 100 uL of 10 mM Tris pH 10.5 per well and placed on an orbital rotator for 5 minutes.
8. Absorbance is read at 570 nm.

First: O=C(NO)c1cnc(N2CCN(S(=O)(=O)c3ccc(-c4csc(CN5CCCC5)c4)cc3)CC2)s1 [Example 307, 2-{4-[4-(2-(pyrrolidin-1-ylmethyl)thien-4-yl)phenylsulfonyl]piperazin-1-yl}-1,3-thiazole-5-carboxylic acid hydroxyamide]
Second: O=C(NO)c1cnc(N2CCN(S(=O)(=O)c3ccc(-c4cc(CN5CCCC5)co4)cc3)CC2)s1 [Example 309]
The inhibition at 100 µM of the first is higher: 99% for the first, 83% for the second.

Compared with `CN(C)Cc1ccoc1-c1ccc(S(=O)(=O)N2CCN(c3ncc(C(=O)NO)s3)CC2)cc1` [Example 308, 2-(4-{4-[3-((dimethylamino)-methyl)-2-furyl]phenylsulfonyl}piperazin-1-yl)-1,3-thiazole-5-carboxylic acid hydroxyamide], `CN(C)Cc1ccsc1-c1ccc(S(=O)(=O)N2CCN(c3ncc(C(=O)NO)s3)CC2)cc1` [Example 310] is lower in inhibition at 100 µM: 99% for the first, 98% for the second.

First: CN(CCO)Cc1cccc(-c2ccc(S(=O)(=O)N3CCN(c4ncc(C(=O)NO)s4)CC3)cc2)c1 [Example 311, 2-{4-[3′-{[(2-hydroxyethyl)(methyl)amino]methyl}-1,1′-biphenylsulfonyl]piperazin-1-yl}-1,3-thiazole-5-carboxylic acid hydroxyamide]
Second: CCCCN(C)Cc1cccc(-c2ccc(S(=O)(=O)N3CCN(c4ncc(C(=O)NO)s4)CC3)cc2)c1 [Example 314, 2-{4-[3′-{[(butyl)(methyl)amino]methyl}-1,1′-biphenylsulfonyl]piperazin-1-yl}-1,3-thiazole-5-carboxylic acid hydroxyamide]
The inhibition at 100 µM of the first is higher: 98% for the first, 97% for the second.

First: O=C(NO)c1cnc(N2CCN(S(=O)(=O)c3ccc(-c4cccc(CN(CCO)CCO)c4)cc3)CC2)s1 [Example 312, 2-{4-[3′-{[bis(2-hydroxyethyl)amino]methyl}-1,1′-biphenylsulfonyl]piperazin-1-yl}-1,3-thiazole-5-carboxylic acid hydroxyamide]
Second: COCCN(C)Cc1cccc(-c2ccc(S(=O)(=O)N3CCN(c4ncc(C(=O)NO)s4)CC3)cc2)c1 [Example 316, 2-{4-[3′-{[(2-methoxyethyl)(methyl)amino]methyl}-1,1′-biphenylsulfonyl]piperazin-1-yl}-1,3-thiazole-5-carboxylic acid hydroxyamide]
The inhibition at 100 µM of the first is lower: 85% for the first, 97% for the second.

Going from `O=C(NO)c1cnc(N2CCN(S(=O)(=O)c3ccc(-c4cccc(CN5CC=CCC5)c4)cc3)CC2)s1` [Example 313, 2-{4-[3′-(3,6-dihydropyridin-1(2H)-ylmethyl)-1,1-biphenylsulfonyl]piperazin-1-yl}-1,3-thiazole-5-carboxylic acid hydroxyamide] to `O=C(NO)c1cnc(N2CCN(S(=O)(=O)c3ccc(-c4cccc(CN5CCNCC5)c4)cc3)CC2)s1` [Example 315, 2-{4-[3′-((piperazin-1-yl)methyl)-1,1′-biphenylsulfonyl]piperazin-1-yl}-1,3-thiazole-5-carboxylic acid hydroxyamide], the inhibition at 100 µM rises from 92% to 95%.

Compared with `C=CCN(CC=C)Cc1cccc(-c2ccc(S(=O)(=O)N3CCN(c4ncc(C(=O)NO)s4)CC3)cc2)c1` [Example 317], `CNCc1cccc(-c2ccc(S(=O)(=O)N3CCN(c4ncc(C(=O)NO)s4)CC3)cc2)c1` [Example 318, 2-{4-[3′-{[methylamino]methyl}-1,1′-biphenylsulfonyl]piperazin-1-yl}-1,3-thiazole-5-carboxylic acid hydroxyamide] is higher in inhibition at 100 µM: 66% for the first, 86% for the second.

Going from `CC(=O)NCc1cccc(-c2ccc(S(=O)(=O)N3CCN(c4ncc(C(=O)NO)s4)CC3)cc2)c1` [Example 319, 2-{4-[3′-{[N-acetylamino]methyl}-1,1′-biphenylsulfonyl]piperazin-1-yl}-1,3-thiazole-5-carboxylic acid hydroxyamide] to `COCc1cccc(-c2ccc(S(=O)(=O)N3CCN(c4ncc(C(=O)NO)s4)CC3)cc2)c1` [Example 320, 2-{4-[3′-{methoxymethyl}-1,1′-biphenylsulfonyl]piperazin-1-yl}-1,3-thiazole-5-carboxylic acid hydroxyamide], the inhibition at 100 µM rises from 89% to 92%.

First: O=C(NO)c1cnc(N2CCN(S(=O)(=O)c3ccc(-c4ccccc4CN4CCCC4)cc3)CC2)s1 [Example 321, 2-{4-[2′-{pyrrolidin-1-ylmethyl}-1,1′-biphenylsulfonyl]piperazin-1-yl]-1,3-thiazole-5-carboxylic acid hydroxyamide]
Second: Cc1ccc(S(=O)(=O)N2CCN(c3ncc(C(=O)NO)s3)CC2)c(CN2CCCC2)c1 [Example 327, 2-(4-{[2-(pyrrolidin-1-ylmethyl)-4-methylphenyl]sulfonyl}piperazin-1-yl)-1,3-thiazole-5-carboxylic acid hydroxyamide]
The inhibition at 100 µM of the first is higher: 95% for the first, 92% for the second.

First: O=C(NO)c1cnc(N2CCN(S(=O)(=O)c3cccc(OC(F)F)c3)CC2)s1 [Example 323, 2-(4-{[3-(difluoromethoxy)phenyl]sulfonyl}piperazin-1-yl)-1,3-thiazole-5-carboxylic acid hydroxyamide]
Second: Cc1ccc(S(=O)(=O)N2CCN(c3ncc(C(=O)NO)s3)CC2)cc1[N+](=O)[O-] [Example 324, 2-{4-[(4-methyl-3-nitrophenyl)sulfonyl]piperazin-1-yl}-1,3-thiazole-5-carboxylic acid hydroxyamide]
The inhibition at 100 µM of the first is higher: 100% for the first, 96% for the second.

`COc1ccc(OC)c(S(=O)(=O)N2CCN(c3ncc(C(=O)NO)s3)CC2)c1` [Example 325, 2-{4-[(2,5-dimethoxyphenyl)sulfonyl]piperazin-1-yl}-1,3-thiazole-5-carboxylic acid hydroxyamide] and `Cc1ccc(C)c(S(=O)(=O)N2CCN(c3ncc(C(=O)NO)s3)CC2)c1` [Example 326, 2-{4-[(2,5-dimethylphenyl)sulfonyl]piperazin-1-yl}-1,3-thiazole-5-carboxylic acid hydroxyamide] are the same in inhibition at 100 µM: 98% for the first, 98% for the second.

Compared with `O=C(NO)c1cnc(N2CCN(S(=O)(=O)c3ccc(N4CCCC4)c(F)c3)CC2)s1` [Example 328, 2-(4-{[3-fluoro-4-(pyrrolidin-1-yl)phenyl]sulfonyl}piperazin-1-yl)-1,3-thiazole-5-carboxylic acid hydroxyamide], `O=C(NO)c1cnc(N2CCN(S(=O)(=O)c3ccc(N4CCCCC4)cc3)CC2)s1` [Example 329, 2-(4-{[4-(piperidin-1-yl)phenyl]sulfonyl}piperazin-1-yl)-1,3-thiazole-5-carboxylic acid hydroxyamide] is higher in inhibition at 100 µM: 96% for the first, 97% for the second.

Going from `O=C(NO)c1cnc(N2CCN(S(=O)(=O)c3ccc(N4CCOCC4)cc3)CC2)s1` [Example 330, 2-(4-{[4-(morpholin-4-yl)phenyl]sulfonyl}piperazin-1-yl)-1,3-thiazole-5-carboxylic acid hydroxyamide] to `CCS(=O)(=O)N1CCN(c2ncc(C(=O)NO)s2)CC1` [Example 332, 2-{4-[ethylsulfonyl]piperazin-1-yl}-1,3-thiazole-5-carboxylic acid hydroxyamide], the inhibition at 100 µM falls from 91% to 30%.

Molecule `O=C(NO)c1cnc(N2CCN(S(=O)(=O)C(F)(F)F)CC2)s1` [Example 331, 2-{4-[(trifluoromethyl)sulfonyl]piperazin-1-yl}-1,3-thiazole-5-carboxylic acid hydroxyamide] has an inhibition at 100 µM of 76%.

Same assay, conditions: compound concentration 100 μM; MCF7 cell growth, 48 hours with drug, SRB staining

Going from “2-(4-{4-[(3-(pyrrolidin-1-ylmethyl)-2-furyl]phenylsulfonyl}piperazin-1-yl)-1,3-thiazole-5-carboxylic acid hydroxyamide [Example 283]” to “2-[4-(naphtha-2-yl-4-sulfonyl)-piperazin-1-yl]-thiazole-5-carboxylic acid hydroxyamide [Example 201]”, the “% inhibition MCF7 cells @ 100 μM” value falls from 98% to 95%.

For `Cc1ccc(S(=O)(=O)N2CCN(c3ncc(C(=O)NO)s3)CC2)cc1` [Example 204, 2-[4-(4-toluene-4-sulfonyl)-piperazin-1-yl]-thiazole-5-carboxylic acid hydroxyamide], the “% inhibition MCF7 cells @ 100 μM” value was 95.4%.
